According to US20140288052A1, “SUBSTITUTED BICYCLIC AZA-HETEROCYCLES AND ANALOGUES AS SIRTUIN MODULATORS” (GlaxoSmithKline, LLC, priority 2011, published 2014):

What was measured:
SIRT1 [1] = target: T1, SIRT1 (Homo sapiens, UniProt Q96EB6); assay: Trp mass spectrometry assay of SIRT1 deacetylase activation; type: biochemical; conditions: Trp peptide substrate; for TRP EC1.5 (μM): concentration that results in 150% activation of SIRT1; for TRP % Fold Act: percent maximum fold activation relative to control (100%)
T1 sequence (Q96EB6 1-747): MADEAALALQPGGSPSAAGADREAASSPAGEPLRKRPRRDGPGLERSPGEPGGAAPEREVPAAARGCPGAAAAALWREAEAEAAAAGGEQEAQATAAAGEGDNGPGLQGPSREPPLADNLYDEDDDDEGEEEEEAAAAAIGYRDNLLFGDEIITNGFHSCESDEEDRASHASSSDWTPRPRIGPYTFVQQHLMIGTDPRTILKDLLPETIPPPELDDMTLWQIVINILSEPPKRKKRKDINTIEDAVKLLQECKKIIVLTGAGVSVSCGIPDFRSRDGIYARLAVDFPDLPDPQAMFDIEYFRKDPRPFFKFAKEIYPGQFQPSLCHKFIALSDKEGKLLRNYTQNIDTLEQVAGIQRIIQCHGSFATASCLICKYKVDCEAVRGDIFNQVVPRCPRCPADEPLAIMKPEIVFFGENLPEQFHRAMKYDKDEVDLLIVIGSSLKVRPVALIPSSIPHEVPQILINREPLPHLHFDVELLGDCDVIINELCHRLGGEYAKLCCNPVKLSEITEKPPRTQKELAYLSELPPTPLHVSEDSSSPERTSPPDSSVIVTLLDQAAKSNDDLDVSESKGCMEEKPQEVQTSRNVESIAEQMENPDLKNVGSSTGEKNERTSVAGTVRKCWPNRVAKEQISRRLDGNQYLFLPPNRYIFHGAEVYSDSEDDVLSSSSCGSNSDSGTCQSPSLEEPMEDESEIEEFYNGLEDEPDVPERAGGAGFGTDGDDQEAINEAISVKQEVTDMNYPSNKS
Excerpt: (§1) Mass spectrometry based assays were used to identify modulators of SIRT1 activity. The TAMRA based assay utilized a peptide having 20 amino acid residues as follows: Ac-EE-K(biotin)-GQSTSSHSK(Ac)NleSTEG-K(5TMR)-EE-NH2 (SEQ ID NO: 1), wherein K(Ac) is an acetylated lysine residue and Nle is a norleucine. The peptide was labeled with the fluorophore 5TMR (excitation 540 nm/emission 580 nm) at the C-terminus. The sequence of the peptide substrate was based on p53 with several modifications. In addition, the methionine residue naturally present in the sequence was replaced with the norleucine because the methionine may be susceptible to oxidation during synthesis and purification. The Trp based assay utilized a peptide having an amino acid residues as follows: Ac-R-H-K-K(Ac)-W-NH2 (SEQ ID NO: 2).
The Trp mass spectrometry assay was conducted as follows. 0.5 μM peptide substrate and 120 μM βNAD^+ were incubated with 10 nM SIRT1 for 25 minutes at 25° C. in a reaction buffer (50 mM HEPES pH 7.5, […], 1 mM DTT, 0.05% BSA). The SIRT1 protein was obtained by cloning the SirT1 gene into a T7-promoter containing vector, which was then expressed in BL21(DE3) bacterial cells and purified as described in further detail below. Test compound was added at varying concentrations to this reaction mixture and the resulting reactions were monitored. After the 25 minute incubation with SIRT1, 10 μL of 10% formic acid was added to stop the reaction. The resulting reactions were sealed and frozen for later mass spec analysis. The relative SIRT1 activity was then determined by measuring the amount of O-acetyl-ADP-ribose (OAADPR) formed (or, alternatively, the amount of deacetylated Trp peptide generated) by the NAD-dependent sirtuin deacetylation reaction in the presence of varying concentrations of the test compound versus control reactions lacking the test compound. The degree to which the test agent activated deacetylation by SIRT1 was expressed as EC1.5 (i.e., the concentration of compound required to increase SIRT1 activity by 50% over the control lacking test compound), and Percent Maximum Activation (i.e., the maximum activity relative to control (100%) obtained for the test compound).
(§2) A control for inhibition of sirtuin activity was conducted by adding 1 μL of 500 mM nicotinamide as a negative control at the start of the reaction (e.g., permits determination of maximum sirtuin inhibition). A control for activation of sirtuin activity was conducted using 10 nM of sirtuin protein, with 1 μL of DMSO in place of compound, to determine the amount of deacetylation of the substrate at a given time point within the linear range of the assay. This time point was the same as that used for test compounds and, within the linear range, the endpoint represents a change in velocity. For the above assay, SIRT1 protein was expressed and purified as follows. The SirT1 gene was cloned into a T7-promoter containing vector and transformed into BL21(DE3). The protein was expressed by induction with 1 mM IPTG as an N-terminal His-tag fusion protein at 18° C. overnight and harvested at 30,000×g. Cells were lysed with lysozyme in lysis buffer (50 mM Tris-HCl, 2 mM Tris[2-carboxyethyl] phosphine (TCEP), 10 μM ZnCl2, 200 mM NaCl) and further treated with sonication for 10 min for complete lysis. The protein was purified over a Ni-NTA column (Amersham) and fractions containing pure protein were pooled, concentrated and run over a sizing column (Sephadex S200 26/60 global). The peak containing soluble protein was collected and run on an Ion-exchange column (MonoQ). Gradient elution (200 mM-500 mM NaCl) yielded pure protein. This protein was concentrated and dialyzed against dialysis buffer (20 mM Tris-HCl, 2 mM TCEP) overnight. The protein was aliquoted and frozen at −80° C. until further use.
Sirtuin-modulating compounds of Formula (I) that activated SIRT1 were identified using the assay described above and are shown below in Table 1. […]

SIRT1 [2] = target: T1, SIRT1; assay: TAMRA based mass spectrometry assay of SIRT1 deacetylase activation; type: biochemical; conditions: TAMRA peptide substrate; for TAMRA EC1.5 (μM): concentration that results in 150% activation of SIRT1; for TAMRA % Fold Act: percent maximum fold activation relative to control (100%)
Excerpt: as §1
The TAMRA based mass spectrometry assay was conducted as follows: 0.5 μM peptide substrate and 120 μM βNAD^+ was incubated with 10 nM SIRT1 for 25 minutes at 25° C. in a reaction buffer (50 mM Tris-acetate pH 8, 137 mM NaCl, 2.7 mM KCl, 1 mM MgCl2, 5 mM DTT, 0.05% BSA). The SIRT1 protein was obtained by cloning the SirT1 gene into a T7-promoter containing vector, which was then transformed and expressed in BL21(DE3) bacterial cells. Test compound was added at varying concentrations to this reaction mixture and the resulting reactions were monitored. After the 25 minute incubation with SIRT1, 10 μL of 10% formic acid was added to stop the reaction. The resulting reactions were sealed and frozen for later mass spec analysis. Determination of the amount of deacetylated substrate peptide formed (or, alternatively, the amount of O-acetyl-ADP-ribose (OAADPR) generated) by the sirtuin-mediated NAD-dependent deacetylation reaction allowed for the precise measurement of relative SIRT1 activity in the presence of varying concentrations of the test compound versus control reactions lacking the test compound.
as §2
Sirtuin-modulating compounds of Formula (I) that activated SIRT1 were identified using the assay described above and are shown below in Table 1. The EC1.5 values represent the concentration of test compounds that result in 150% activation of SIRT1. The EC1.5 values for the activating compounds of Formula (I) are represented by A (EC1.5<1 μM), B (EC1.5 1−25 μM), C (EC1.5>25 μM). […]

Structure (SMILES) | TRP EC1.5 (μM) (SIRT1 [1]) | TRP % Fold Act (SIRT1 [1]) | TAMRA EC1.5 (μM) (SIRT1 [2]) | TAMRA % Fold Act (SIRT1 [2])
O=C(Nc1nccs1)c1ccnn2cc(-c3ccccc3F)nc12 [Compound 1] | C (EC1.5>25 μM) | B (Fold Activation<350%) | C (EC1.5>25 μM) | B (Fold Activation<350%)
O=C(Nc1nccs1)c1ccnn2cc(-c3ccccc3Cl)nc12 [Compound 3] |  |  | C (EC1.5>25 μM) | B (Fold Activation<350%)
Cc1cnc(NC(=O)c2ccnn3cc(-c4ccccc4F)nc23)s1 [Compound 4] | C (EC1.5>25 μM) | B (Fold Activation<350%) | C (EC1.5>25 μM) | B (Fold Activation<350%)
Cc1cnc(NC(=O)c2ccnn3cc(-c4cccc(F)c4)nc23)s1 [Compound 5] | C (EC1.5>25 μM) | B (Fold Activation<350%) | C (EC1.5>25 μM) | B (Fold Activation<350%)
O=C(Nc1ccnc(N2CCOCC2)c1)c1ccnn2cc(-c3ccccc3F)nc12 [Compound 7] |  |  | C (EC1.5>25 μM) | B (Fold Activation<350%)
O=C(Nc1ccnc(N2CCOCC2)c1)c1ccnn2cc(-c3ccccc3Cl)nc12 [Compound 9] |  |  | B (EC1.5 1−25 μM) | B (Fold Activation<350%)
O=C(Nc1cccc(N2CCOCC2)n1)c1ccnn2cc(-c3cccc(F)c3)nc12 [Compound 11] |  |  | C (EC1.5>25 μM) | B (Fold Activation<350%)
O=C(Nc1nccs1)c1ccnn2cc(-c3ccccc3C(F)(F)F)nc12 [Compound 13] | A (EC1.5<1 μM) | B (Fold Activation<350%) | A (EC1.5<1 μM) | B (Fold Activation<350%)
O=C(Nc1ccnc(N2CCOCC2)c1)c1ccnn2cc(-c3ccccc3C(F)(F)F)nc12 [Compound 15] |  |  | A (EC1.5<1 μM) | A (Fold activation≧350%)
O=C(Nc1ccnc(N2CCOCC2)c1)c1ccnn2cc(-c3cccc(C(F)(F)F)c3)nc12 [Compound 19] |  |  | C (EC1.5>25 μM) | B (Fold Activation<350%)
O=C(Nc1cccc(N2CCOCC2)n1)c1ccnn2cc(-c3cccc(C(F)(F)F)c3)nc12 [Compound 20] |  |  | A (EC1.5<1 μM) | B (Fold Activation<350%)
O=C(Nc1cccc(N2CCOCC2)n1)c1ccnn2cc(-c3cccc(Cl)c3)nc12 [Compound 24] |  |  | C (EC1.5>25 μM) | B (Fold Activation<350%)
Cc1cnc(NC(=O)c2cc(N3CCOCC3)nn3cc(-c4cccc(Cl)c4)nc23)s1 [Compound 31] |  |  | C (EC1.5>25 μM) | B (Fold Activation<350%)
O=C(Nc1nccs1)c1cc(N2CCOCC2)nn2cc(-c3ccccc3Cl)nc12 [Compound 34] | B (EC1.5 1−25 μM) | B (Fold Activation<350%) |  | 

More lines, now with the values ahead:

TRP EC1.5 (μM) (SIRT1 [1]) | TRP % Fold Act (SIRT1 [1]) | TAMRA EC1.5 (μM) (SIRT1 [2]) | TAMRA % Fold Act (SIRT1 [2]) | Structure (SMILES)
C (EC1.5>25 μM) | B (Fold Activation<350%) |  |  | Cc1cnc(NC(=O)c2cc(N3CCOCC3)nn3cc(-c4ccccc4Cl)nc23)s1 [Compound 35]
C (EC1.5>25 μM) | B (Fold Activation<350%) |  |  | Cc1cnc(NC(=O)c2cc(N3CCOCC3)nn3cc(-c4ccccc4F)nc23)s1 [Compound 38]
 |  | C (EC1.5>25 μM) | B (Fold Activation<350%) | O=C(Nc1cccnc1)c1cc(N2CCOCC2)nn2cc(-c3cccc(C(F)(F)F)c3)nc12 [Compound 50]
 |  | C (EC1.5>25 μM) | B (Fold Activation<350%) | O=C(Nc1ccncc1)c1cc(N2CCOCC2)nn2cc(-c3cccc(C(F)(F)F)c3)nc12 [Compound 51]
 |  | C (EC1.5>25 μM) | B (Fold Activation<350%) | O=C(Nc1cccnc1)c1cc(N2CCOCC2)nn2cc(-c3ccccc3Cl)nc12 [Compound 52]
 |  | C (EC1.5>25 μM) | B (Fold Activation<350%) | O=C(Nc1ccncc1)c1cc(N2CCOCC2)nn2cc(-c3ccccc3Cl)nc12 [Compound 53]
C (EC1.5>25 μM) | B (Fold Activation<350%) |  |  | Cc1nc(C(=O)Nc2ccnc3cc(-c4cccc(C(F)(F)F)c4)nn23)cs1 [Compound 67]
C (EC1.5>25 μM) | B (Fold Activation<350%) |  |  | Cc1nc(C(=O)Nc2ccnc3cc(-c4cccc(C(F)(F)F)c4)nn23)c(C)s1 [Compound 68]
C (EC1.5>25 μM) | B (Fold Activation<350%) |  |  | Cc1cnc(C(=O)Nc2ccnc3cc(-c4cccc(C(F)(F)F)c4)nn23)s1 [Compound 69]
C (EC1.5>25 μM) | B (Fold Activation<350%) |  |  | O=C(Nc1ccnc2cc(-c3cccc(C(F)(F)F)c3)nn12)c1cnccn1 [Compound 72]
C (EC1.5>25 μM) | B (Fold Activation<350%) |  |  | O=C(Nc1ccccn1)c1ccnc2cc(-c3cccc(C(F)(F)F)c3)nn12 [Compound 84]
